From ChEMBL document CHEMBL1145610, “N-Acetylhexosaminidase inhibitory properties of C-1 homologated GlcNAc- and GalNAc-thiazolines” (Bioorg Med Chem Lett, 2008)

Biological target: T1, B-N-acetylhexosaminidase (Streptomyces plicatus, UniProt O85361)
T1 sequence (O85361 whole entry): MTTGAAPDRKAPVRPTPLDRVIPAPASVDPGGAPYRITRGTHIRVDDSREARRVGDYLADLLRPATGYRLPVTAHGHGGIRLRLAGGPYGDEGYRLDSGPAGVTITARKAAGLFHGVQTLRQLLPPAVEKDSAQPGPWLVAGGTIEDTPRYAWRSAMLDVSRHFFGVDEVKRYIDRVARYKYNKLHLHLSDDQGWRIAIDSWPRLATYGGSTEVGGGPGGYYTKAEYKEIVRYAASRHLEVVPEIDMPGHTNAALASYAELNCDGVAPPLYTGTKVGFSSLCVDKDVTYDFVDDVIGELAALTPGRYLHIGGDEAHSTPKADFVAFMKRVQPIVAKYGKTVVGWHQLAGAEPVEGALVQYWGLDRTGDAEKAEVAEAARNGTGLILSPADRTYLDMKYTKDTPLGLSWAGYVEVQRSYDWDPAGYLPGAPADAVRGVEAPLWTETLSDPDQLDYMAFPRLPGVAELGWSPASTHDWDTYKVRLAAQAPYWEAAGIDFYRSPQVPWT
Assay: Inhibition of Streptomyces plicatus N-acetyl-hexosaminidase

| Ki | Compound |
| --- | --- |
| > 2000 µM | CC1=N[C@@H]2[C@@H](O)[C@@H](O)[C@@H](CO)O[C@]2(CNC(=O)OC(C)(C)C)S1 |
| 21 µM | CC(=O)NC1NC[C@H](CO)[C@H](O)[C@@H]1O (single isomer, unassigned) |
| > 2000 µM | CC1=N[C@@H]2[C@@H](O)[C@@H](O)[C@@H](CO)O[C@]2(CN)S1 |
| 100 µM | CC1=N[C@@H]2[C@@H](O)[C@@H](O)[C@@H](CO)O[C@@H]2S1 |
| 1600 µM | Cc1nc2c(s1)O[C@H](CO)[C@H](O)[C@@H]2O |
| 200 µM | CC1=N[C@@H]2[C@@H](O)[C@H](O)[C@@H](CO)O[C@]2(C)S1 |
| 20 µM | CC1=N[C@@H]2[C@@H](O)[C@H](O)[C@@H](CO)O[C@@H]2S1 |
